# Experimental data published in ChEMBL document CHEMBL1201862, “PubChem BioAssay data set” (2004).
# Calls of active or inactive are those of the source.
# Experiments:
# Large T antigen = Large T antigen (Simian virus 40, UniProt P03070); format: functional, Betapolyomavirus macacae;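 note: Confirmatory-stage PubChem screen for compounds that inhibit SV40 T antigen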
# [1] = Luminescence Cell-Based Dose Response HTS to Identify Activators of Luciferase Translation or Activity in H4 […] Cells. [Related pubchem assays: 1829 (Project Summary), 1814 (Primary HTS)]; format: functional
# H4 = assay: Luminescence Cell-Based Dose Response HTS to Identify Activators of 5'UTR Stem-Loop Driven Prion Protein mRNA Translation in H4 Neuroglioblastoma Cells. [Related pubchem assays: 1829 (Project Summary), 1814 (Primary HTS)]; format: functional; conditions: Homo sapiens
# Protein skinhead-1 = target: T1, Protein skinhead-1 (Caenorhabditis elegans, UniProt P34707); format: functional
# T1 sequence (P34707 whole entry): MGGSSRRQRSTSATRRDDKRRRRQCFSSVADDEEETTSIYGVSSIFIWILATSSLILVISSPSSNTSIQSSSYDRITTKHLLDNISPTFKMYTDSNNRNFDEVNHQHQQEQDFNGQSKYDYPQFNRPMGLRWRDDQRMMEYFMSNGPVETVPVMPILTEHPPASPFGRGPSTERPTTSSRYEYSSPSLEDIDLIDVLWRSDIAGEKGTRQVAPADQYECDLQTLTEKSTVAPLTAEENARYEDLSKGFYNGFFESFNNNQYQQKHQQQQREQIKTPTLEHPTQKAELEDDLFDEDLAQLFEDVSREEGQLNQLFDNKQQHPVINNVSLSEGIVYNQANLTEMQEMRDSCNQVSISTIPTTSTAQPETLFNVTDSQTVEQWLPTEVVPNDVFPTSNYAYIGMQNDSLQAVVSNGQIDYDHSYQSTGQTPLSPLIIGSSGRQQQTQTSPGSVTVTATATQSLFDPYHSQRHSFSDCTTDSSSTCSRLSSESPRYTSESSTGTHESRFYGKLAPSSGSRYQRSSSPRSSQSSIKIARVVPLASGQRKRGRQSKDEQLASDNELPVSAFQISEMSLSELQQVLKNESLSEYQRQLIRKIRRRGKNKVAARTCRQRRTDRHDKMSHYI
# cells [2] = format: functional, cell-based
# cells [3] = format: functional, cell-based; remark: listed apart in the source
# Streptococcus = assay: Group A Streptococcus viability loss, dose response, counter-screen for streptokinase expression inhibitor project, luminescence, BacTiterGlo (AID 1915); format: functional, organism-based;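 note: potency for reduction of bacterial viability or growth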
# [4] = growth suppression of beta-catenin-knockout colon cells, dose response, cell-based, HCT116, human colon tumor (AID 1045); format: functional;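 note: HCT116 colon tumor cells with beta catenin knocked out; cells exposed to compound for 60 hours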
# [5] = growth suppression of PTEN-null colon cells, dose response, cell-based, HCT116 PTEN knockout (AID 1047); format: functional;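 note: HCT116 colon tumor cells with PTEN knocked out; cells exposed to compound for 60 hours before readout; potency for loss of cell viability measured by luminescence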
# [6] = tested on: Streptococcus sp. 'group A'; assay: growth inhibition of control SK(-) GAS strain, dose response, counter-screen for streptokinase expression inhibitor project, luminescence, kanamycin, BacTiterGlo, confirmation (AID 1900); format: functional, organism-based
# Streptokinase A = target: T2, Streptokinase A (Streptococcus pyogenes serotype M1, UniProt P10520); assay: S. pyogenes streptokinase expression inhibitors, potency, dose response, plasminogen activation absorbance, OD405 (AID 1914); format: functional, Streptococcus pyogenes M1 GAS;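 note: secreted streptokinase activity via plasminogen activation per viability signal from cell pellet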
# T2 sequence (P10520 whole entry): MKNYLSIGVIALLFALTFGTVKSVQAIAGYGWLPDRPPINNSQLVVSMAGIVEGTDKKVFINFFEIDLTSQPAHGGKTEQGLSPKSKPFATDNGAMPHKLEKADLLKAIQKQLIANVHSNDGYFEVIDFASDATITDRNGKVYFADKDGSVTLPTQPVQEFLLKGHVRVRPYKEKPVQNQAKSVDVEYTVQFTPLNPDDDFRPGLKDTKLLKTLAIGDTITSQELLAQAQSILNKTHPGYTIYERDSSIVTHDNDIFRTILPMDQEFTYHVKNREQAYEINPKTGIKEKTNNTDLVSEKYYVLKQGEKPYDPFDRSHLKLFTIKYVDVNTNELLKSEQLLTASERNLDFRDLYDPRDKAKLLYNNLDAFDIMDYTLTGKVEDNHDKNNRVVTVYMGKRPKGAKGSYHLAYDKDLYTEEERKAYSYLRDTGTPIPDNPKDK
# [7] = HEp-2 cell cytotoxicity, dose response, cytotoxicity control for RSV inhibitor project, HTS (AID 2410); format: functional; conditions: human respiratory syncytial virus
# [8] = target: T3, Corticotropin-releasing factor receptor 2/Corticotropin-releasing factor-binding protein (Homo sapiens, UniProt P24387+Q13324); assay: activators of CRF receptor 2 with binding protein – uHTS hits, confirmation (AID 602473); format: functional; conditions: read-out: EC50_Mean
# T3 sequence (Q13324 whole entry): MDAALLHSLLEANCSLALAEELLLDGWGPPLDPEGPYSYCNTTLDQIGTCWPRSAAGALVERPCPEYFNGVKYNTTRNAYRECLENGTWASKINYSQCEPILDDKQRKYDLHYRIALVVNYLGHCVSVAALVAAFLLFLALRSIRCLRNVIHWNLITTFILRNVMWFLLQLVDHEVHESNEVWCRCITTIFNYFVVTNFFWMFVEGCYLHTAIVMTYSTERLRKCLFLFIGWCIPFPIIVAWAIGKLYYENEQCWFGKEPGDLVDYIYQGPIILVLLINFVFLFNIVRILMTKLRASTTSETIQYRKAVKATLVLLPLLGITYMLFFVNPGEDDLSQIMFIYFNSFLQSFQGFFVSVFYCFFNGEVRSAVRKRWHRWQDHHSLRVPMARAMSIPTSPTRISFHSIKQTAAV
# T3 sequence (P24387 whole entry): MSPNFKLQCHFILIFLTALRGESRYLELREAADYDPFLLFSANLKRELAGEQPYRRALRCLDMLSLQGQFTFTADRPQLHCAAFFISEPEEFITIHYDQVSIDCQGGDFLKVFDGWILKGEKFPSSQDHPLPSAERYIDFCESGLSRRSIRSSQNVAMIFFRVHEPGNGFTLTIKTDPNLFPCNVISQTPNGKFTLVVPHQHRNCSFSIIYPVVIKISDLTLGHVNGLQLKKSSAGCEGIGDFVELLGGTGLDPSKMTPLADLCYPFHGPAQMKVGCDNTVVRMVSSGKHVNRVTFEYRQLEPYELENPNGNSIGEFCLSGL
# [9] = target: FAD-linked sulfhydryl oxidase ALR (Homo sapiens, UniProt P55789); assay: inhibitors of human ALR sulfhydryl oxidase, dose response, biochemical, H2O2 detection, luminescence, cherry-pick (AID 493248)
# FAD-linked sulfhydryl oxidase ALR, sequence (P55789 whole entry): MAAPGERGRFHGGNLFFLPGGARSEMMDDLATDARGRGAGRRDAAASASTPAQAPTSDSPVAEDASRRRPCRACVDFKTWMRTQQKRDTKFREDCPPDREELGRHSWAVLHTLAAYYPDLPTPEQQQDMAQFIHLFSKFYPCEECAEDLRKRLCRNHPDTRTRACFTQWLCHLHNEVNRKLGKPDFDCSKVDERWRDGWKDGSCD
# Nonstructural protein 1 = Nonstructural protein 1 (Influenza A virus, UniProt Q194T2); format: functional, Influenza A virus (A/California/07/2009(H1N1))
# Nonstructural protein 1, sequence (Q194T2 whole entry): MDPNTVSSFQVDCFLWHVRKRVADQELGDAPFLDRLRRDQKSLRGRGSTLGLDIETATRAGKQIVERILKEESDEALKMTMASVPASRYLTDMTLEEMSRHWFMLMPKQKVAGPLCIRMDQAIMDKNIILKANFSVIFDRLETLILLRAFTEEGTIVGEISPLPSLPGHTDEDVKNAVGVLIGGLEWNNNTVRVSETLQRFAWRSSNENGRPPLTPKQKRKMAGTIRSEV
# Genome polyprotein = Genome polyprotein (dengue virus type 2, UniProt P29990); assay: Dengue-2 NS5 methyltransferase inhibitors, primary screen, biochemical, confirmation dose response (AID 588689); format: functional
# Genome polyprotein, sequence (P29990 2492-3391 limits assumed): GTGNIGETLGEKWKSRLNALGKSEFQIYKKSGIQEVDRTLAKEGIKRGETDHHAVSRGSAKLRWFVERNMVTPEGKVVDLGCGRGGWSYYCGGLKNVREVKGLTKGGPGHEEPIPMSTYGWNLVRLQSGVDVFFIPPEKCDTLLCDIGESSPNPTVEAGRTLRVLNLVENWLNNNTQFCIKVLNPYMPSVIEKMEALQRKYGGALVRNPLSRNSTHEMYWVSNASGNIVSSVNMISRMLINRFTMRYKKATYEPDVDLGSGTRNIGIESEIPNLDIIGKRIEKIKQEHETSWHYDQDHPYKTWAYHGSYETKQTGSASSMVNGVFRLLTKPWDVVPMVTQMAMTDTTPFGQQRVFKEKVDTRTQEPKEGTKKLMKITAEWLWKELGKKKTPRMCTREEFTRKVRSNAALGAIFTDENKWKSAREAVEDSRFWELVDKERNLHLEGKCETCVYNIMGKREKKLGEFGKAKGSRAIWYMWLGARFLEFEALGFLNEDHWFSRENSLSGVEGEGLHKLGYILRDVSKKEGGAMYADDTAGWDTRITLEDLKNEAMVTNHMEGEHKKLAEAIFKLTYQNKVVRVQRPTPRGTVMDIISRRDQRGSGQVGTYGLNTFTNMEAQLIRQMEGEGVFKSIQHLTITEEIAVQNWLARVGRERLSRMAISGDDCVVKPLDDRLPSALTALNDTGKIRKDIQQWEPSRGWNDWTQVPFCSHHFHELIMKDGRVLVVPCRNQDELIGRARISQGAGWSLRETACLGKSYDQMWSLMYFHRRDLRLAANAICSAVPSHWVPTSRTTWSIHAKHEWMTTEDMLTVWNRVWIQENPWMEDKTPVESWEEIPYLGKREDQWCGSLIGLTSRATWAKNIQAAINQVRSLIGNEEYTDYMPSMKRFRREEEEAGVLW
# Paired box protein Pax-8 = Paired box protein Pax-8 (Homo sapiens, UniProt Q06710); assay: inhibitors of PAX8-driven TPO luciferase reporter, dose response, RMG-I cells, cherry-pick (AID 687027); format: functional, cell-based;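 note: luciferase reporter driven by Pax8 target thyroperoxidase promoter measured by SteadyGlo luminescence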
# Paired box protein Pax-8, sequence (Q06710 whole entry): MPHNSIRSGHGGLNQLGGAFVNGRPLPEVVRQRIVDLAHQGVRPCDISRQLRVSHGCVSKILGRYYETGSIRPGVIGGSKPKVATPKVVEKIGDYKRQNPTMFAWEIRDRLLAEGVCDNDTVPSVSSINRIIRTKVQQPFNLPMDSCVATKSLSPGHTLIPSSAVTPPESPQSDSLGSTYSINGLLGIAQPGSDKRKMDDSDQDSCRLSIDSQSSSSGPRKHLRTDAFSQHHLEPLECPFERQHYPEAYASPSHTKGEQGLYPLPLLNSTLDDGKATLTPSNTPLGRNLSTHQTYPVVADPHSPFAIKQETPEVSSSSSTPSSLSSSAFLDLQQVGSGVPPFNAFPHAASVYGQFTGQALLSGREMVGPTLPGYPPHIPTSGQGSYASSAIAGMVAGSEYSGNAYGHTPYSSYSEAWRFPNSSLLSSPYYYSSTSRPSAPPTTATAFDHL
# [10] = control 3'UTR Renilla luciferase suppression, dose response, counter-screen for Shn3 inhibitor project, cell-based, Clone20-Shn3RL, cherry-picked (AID 624133); format: functional
# [11] = target: T4, Rac GTPase-activating protein 1 (Homo sapiens, UniProt Q9H0H5); assay: MgcRacGAP GTPase-activating activity inhibitors, confirmation, biochemical, ADP Hunter fluorescence, primary and confirmatory (AID 624330); format: functional
# T4 sequence (Q9H0H5 whole entry): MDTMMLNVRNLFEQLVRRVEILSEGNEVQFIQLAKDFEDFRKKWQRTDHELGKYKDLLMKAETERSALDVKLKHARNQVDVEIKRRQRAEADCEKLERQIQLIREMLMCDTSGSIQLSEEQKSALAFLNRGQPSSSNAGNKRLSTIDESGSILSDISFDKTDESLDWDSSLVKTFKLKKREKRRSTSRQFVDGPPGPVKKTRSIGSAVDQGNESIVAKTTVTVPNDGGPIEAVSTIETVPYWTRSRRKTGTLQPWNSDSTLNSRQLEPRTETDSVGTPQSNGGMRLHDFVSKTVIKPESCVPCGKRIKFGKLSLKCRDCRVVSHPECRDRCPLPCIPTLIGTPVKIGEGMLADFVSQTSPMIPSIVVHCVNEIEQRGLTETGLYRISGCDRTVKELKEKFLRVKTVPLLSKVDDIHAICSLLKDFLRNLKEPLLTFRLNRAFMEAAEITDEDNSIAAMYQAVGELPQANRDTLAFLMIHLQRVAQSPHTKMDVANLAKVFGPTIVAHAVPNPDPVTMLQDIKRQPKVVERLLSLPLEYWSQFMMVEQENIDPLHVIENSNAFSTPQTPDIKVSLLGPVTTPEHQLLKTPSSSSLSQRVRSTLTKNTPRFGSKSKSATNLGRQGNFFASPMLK
# Large T antigen, sequence (P03070 whole entry): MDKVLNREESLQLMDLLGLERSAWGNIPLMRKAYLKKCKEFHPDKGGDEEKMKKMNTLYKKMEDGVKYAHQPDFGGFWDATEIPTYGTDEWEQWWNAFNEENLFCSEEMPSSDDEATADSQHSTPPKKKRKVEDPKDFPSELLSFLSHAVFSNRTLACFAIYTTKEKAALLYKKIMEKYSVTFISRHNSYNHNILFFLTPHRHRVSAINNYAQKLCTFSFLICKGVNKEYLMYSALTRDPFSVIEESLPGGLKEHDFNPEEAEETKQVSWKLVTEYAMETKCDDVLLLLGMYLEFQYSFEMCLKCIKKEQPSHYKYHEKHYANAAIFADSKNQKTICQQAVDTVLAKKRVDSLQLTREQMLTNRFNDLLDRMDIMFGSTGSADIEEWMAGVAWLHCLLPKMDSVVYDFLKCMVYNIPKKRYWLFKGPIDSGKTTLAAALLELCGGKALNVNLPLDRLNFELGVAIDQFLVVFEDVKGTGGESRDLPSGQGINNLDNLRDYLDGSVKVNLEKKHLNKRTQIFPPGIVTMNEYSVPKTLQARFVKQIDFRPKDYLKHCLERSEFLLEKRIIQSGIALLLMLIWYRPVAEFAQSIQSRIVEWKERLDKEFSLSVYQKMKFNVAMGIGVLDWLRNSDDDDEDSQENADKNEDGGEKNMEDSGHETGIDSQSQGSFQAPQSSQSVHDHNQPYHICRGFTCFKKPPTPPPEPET
structure (smiles),measurement,setting,value
CC/C(=N\NC(=O)CCC(=O)NCc1ccccc1)c1ccc(O)cc1,IC50,Large T antigen,34.6 µM (active)
O=C(Nc1ccc(Cl)c(Cl)c1)c1ccc(Cn2cc(Cl)cn2)cc1,EC50,[1],38.1 µM (active)
same,EC50,H4,> 120 µM (not active)
CCOc1ccccc1NC(=O)CSc1ncnc2c1oc1ccccc12,IC50,Protein skinhead-1,> 100 µM (inactive)
same,EC50,cells [2],> 350 µM (not active)
same,EC50,cells [3],> 350 µM (not active)
O=C(Oc1ccc(-c2cnc3ccccc3n2)cc1)c1ccc(Cl)c([N+](=O)[O-])c1,EC50,Streptococcus,114 µM (active)
same,EC50,[4],34.6 µM (active)
same,EC50,[5],48.9 µM (active)
same,EC50,[6],11.5 µM (active)
same,EC50,Streptokinase A,> 150 µM (not active)
same,CC50,[7],25.1 µM (active)
Cc1cc(C=C(C#N)C#N)ccc1N1CCCC1,EC50,[8],6.3 µM (active)
CCC(Oc1ccccc1)C(=O)Nc1ccccc1N1CCCCC1 (stereo not drawn),EC50,Streptococcus,19.9 µM (active)
same,EC50,[6],10.3 µM (active)
same,EC50,Streptokinase A,15.8 µM (active)
COc1ccc(N=Nc2c(N)n[nH]c2N)cc1,AC50,[9],17 µM (active)
same,IC50,Large T antigen,12 µM (active)
O=C(NNC(=O)c1ccccc1Br)c1ccc(Cl)cc1,EC50,cells [2],> 350 µM (not active)
same,EC50,cells [3],> 350 µM (not active)
CC1=NN(c2ccccc2)C(=O)/C1=C\c1sccc1C,IC50,Nonstructural protein 1,> 100 µM (active)
Cc1ccc(-c2nnn(CC(=O)N(Cc3cccs3)C(C(=O)NC3CCCCC3)c3ccco3)n2)o1 (stereo not drawn),EC50,cells [2],> 350 µM (not active)
same,EC50,cells [3],> 350 µM (not active)
Oc1ccccc1C=NCCN1CCN(CCN=Cc2ccccc2O)C1c1ccccc1O (stereo not drawn),IC50,Nonstructural protein 1,1.75 µM (active)
COc1cc(/C=C2/C(=O)NN(c3ccc(F)cc3)C2=O)cc([N+](=O)[O-])c1O,IC50,Genome polyprotein,> 100 µM (active)
O=C1NC(=O)C(=Cc2ccc(N3CCN(C(=O)c4ccccc4)CC3)c([N+](=O)[O-])c2)C(=O)N1,IC50,Genome polyprotein,19.8 µM (active)
COc1cc(C2c3cc4c(c(O)c3CC3COC(=O)C32)OCO4)cc(OC)c1OC (stereo not drawn),AC50,Paired box protein Pax-8,< 0.26 µM (active)
COc1ccc(S(=O)(=O)NCCC(=O)OCC(=O)NC2CC2)cc1,AC50,[10],33.7 µM (active)
Cc1ccsc1C(=O)N/N=C/c1ccc([N+](=O)[O-])cc1,EC50,cells [2],> 350 µM (not active)
same,EC50,cells [3],5.99 µM (active)
COc1ccc2nc(NC3=NCCN3)sc2c1,EC50,[1],0.778 µM (active)
same,EC50,H4,2.01 µM (active)
C=CCN1C(=O)/C(=C/c2ccc(O)cc2)S/C1=N/c1nccs1,EC50,[8],> 53 µM (inactive)
same,CC50,[7],22.4 µM (active)
CC1=C(C(=O)O)N2C(=O)C(NC(=O)Cc3ccccc3)C2SC1 (stereo not drawn),EC50,Streptococcus,2.68 µM (active)
same,EC50,[6],1.22 µM (active)
same,EC50,Streptokinase A,> 150 µM (not active)
O=C1NC(=O)C(=Cc2coc3ccc(O)cc3c2=O)C(=O)N1,IC50,[11],150 µM (active)
same,IC50,Genome polyprotein,> 100 µM (active)
CS(=O)(=O)c1ccc2nc(NC(=O)C3CC3)sc2c1,EC50,cells [2],> 350 µM (not active)
same,EC50,cells [3],> 350 µM (not active)
CC(=O)Nc1ccccc1O,IC50,Large T antigen,6.2 µM (active)
CCc1c(C)nc(N)nc1N1N=C1SC(C(C)=O)C(C)=O,IC50,[11],12.5 µM (active)
same,IC50,Large T antigen,95.9 µM (active)
COc1ccc(NC2CCCN(C(=O)c3c(C)noc3C)C2)cc1 (stereo not drawn),AC50,[9],3.46 µM (active)
same,IC50,Large T antigen,24 µM (active)
CCCCCCc1cc2cc(C(=O)NC)c(=N)oc2cc1O,EC50,[8],3.06 µM (active)
Cc1noc(NS(=O)(=O)c2ccc(NC(=O)c3ccccc3NS(=O)(=O)c3ccc(F)c(F)c3)cc2)c1C,IC50,Genome polyprotein,33.2 µM (active)
O=C1NN(c2cccc(Br)c2)C(=O)/C1=C\c1ccc(O)cc1,IC50,Large T antigen,17.2 µM (active)
same,IC50,Genome polyprotein,> 100 µM (active)
O=C(Nc1ccc(F)cc1)N1CCCCN2[C@@H](CO)[C@@H](c3ccc(-c4cccc(F)c4)cc3)[C@@H]2C1,AC50,Paired box protein Pax-8,21.3 µM (active)
N/C(=N\[N+](=O)[O-])N/N=C/c1ccc(O)cc1,IC50,[11],20.4 µM (active)
same,IC50,Large T antigen,> 100 µM (active)
